Data reported in patent US9695155B2, “Herbicidal substituted pyrimidinyloxy benzene compounds” (E. I. DU PONT DE NEMOURS AND COMPANY, priority 2013, dated 2017).

What was measured:
[1] = tested on: Heteranthera limosa; assay: Test B flooded paddy test; format: in vivo; details: Flood, 250 g ai/ha; 0 to 100 scale where 0 is no effect and 100 is complete control
Outline: (§1)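 Visual ratings on a 0 to 100 scale, where 100 means complete control, compared treated plants with controls after 13 to 15 days in a greenhouse. Treatment went into paddy water 3 cm deep over the soil, applied to plants at the 2-leaf stage.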

[2] = tested on: kochia; assay: Test A preemergence; format: in vivo, Kochia scoparia; details: for Plant response rating, Kochia: 0 to 100 scale where 0 is no effect and 100 is complete control
Outline: (§2)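 Visual 0–100 rating (100 = complete control) taken about 10 d post-treatment relative to untreated checks. Preemergence: directed soil spray on sown loam/sand pots. Postemergence: seedlings 2–10 cm, 1–2 leaf. Non-phytotoxic solvent formulation with surfactant.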

[3] = tested on: ragweed; assay: Test A postemergence; format: in vivo, Ambrosia elatior; details: 0 to 100 scale, 0 no effect, 100 complete control
Outline: as §2

[4] = tested on: barnyardgrass; assay: Test A postemergence; format: in vivo, Echinochloa crus-galli
Outline: as §2

[5] = tested on: barnyardgrass; assay: Test A preemergence; format: in vivo, Echinochloa crus-galli; details: for Plant response rating, Barnyardgrass: 0 to 100 scale where 0 is no effect and 100 is complete control
Outline: as §2

[6] = tested on: barnyardgrass; assay: Test B flooded paddy test; format: in vivo, Echinochloa crus-galli; details: Flood, 250 g ai/ha; 0 to 100 scale where 0 is no effect and 100 is complete control
Outline: as §1

[7] = tested on: giant foxtail; assay: Test A postemergence; format: in vivo, Setaria faberii
Outline: as §2

[8] = tested on: Italian ryegrass; assay: Test A postemergence; format: in vivo, Lolium multiflorum; details: 0 to 100 scale, 0 no effect, 100 complete control
Outline: as §2

[9] = tested on: corn; assay: Test A postemergence; format: in vivo, Zea mays
Outline: as §2

[10] = tested on: pigweed; assay: Test A preemergence; format: in vivo, Amaranthus retroflexus; details: for Plant response rating, Pigweed: 0 to 100 scale where 0 is no effect and 100 is complete control
Outline: as §2

[11] = tested on: blackgrass; assay: Test A postemergence; format: in vivo, Alopecurus myosuroides
Outline: as §2

[12] = tested on: kochia; assay: Test A postemergence; format: in vivo, Kochia scoparia
Outline: as §2

[13] = tested on: rice; assay: Test B flooded paddy test; format: in vivo, Oryza sativa; details: Flood, 250 g ai/ha; 0 to 100 scale where 0 is no effect and 100 is complete control
Outline: as §1

[14] = tested on: wheat; assay: Test A postemergence; format: in vivo, Triticum aestivum; details: 0 to 100 scale, 0 no effect, 100 complete control
Outline: as §2

[15] = tested on: pigweed; assay: Test A postemergence; format: in vivo, Amaranthus retroflexus; details: 0 to 100 scale, 0 no effect, 100 complete control
Outline: as §2

[16] = tested on: galium; assay: Test A postemergence; format: in vivo, Galium aparine
Outline: as §2

[17] = tested on: sedge, umbrella; assay: Test B flooded paddy test; format: in vivo, Cyperus difformis; details: Flood, 250 g ai/ha; 0 to 100 scale where 0 is no effect and 100 is complete control
Outline: as §1

[18] = tested on: ragweed; assay: Test A preemergence; format: in vivo, Ambrosia elatior; details: for Plant response rating, Ragweed: 0 to 100 scale where 0 is no effect and 100 is complete control
Outline: as §2

[19] = tested on: Italian ryegrass; assay: Test A preemergence; format: in vivo, Lolium multiflorum; details: for Plant response rating, Ryegrass, Italian: 0 to 100 scale where 0 is no effect and 100 is complete control
Outline: as §2

[20] = tested on: giant foxtail; assay: Test A preemergence; format: in vivo, Setaria faberii; details: for Plant response rating, Foxtail, Giant: 0 to 100 scale where 0 is no effect and 100 is complete control
Outline: as §2

[21] = 31 g ai/ha, 0 to 100 scale, 0 no effect, 100 complete control
[22] = 125 g ai/ha, 0 to 100 scale where 0 is no effect and 100 is complete control
[23] = 31 g ai/ha, visual, approximately 10 days
[24] = 125 g ai/ha, 0 to 100 scale, 0 no effect, 100 complete control

## Fc1cnc(Oc2cccc(Cl)c2-n2cc(OC(F)F)cn2)nc1 [Compound 101]
[1]
  Plant response rating, Ducksalad: 0
[2]; 31 g ai/ha
  Kochia plant response rating (0 to 100 scale): 70
[2]; 125 g ai/ha
  Plant response rating, Kochia: 70
[3]; 31 g ai/ha
  Plant response rating, Ragweed: 50
[4]; [21]
  Plant response rating, Barnyardgrass: 20
[4]; [22]
  Plant response rating, Barnyardgrass: 20
[5]; 31 g ai/ha
  Barnyardgrass plant response rating (0 to 100 scale): 60
[5]; 125 g ai/ha
  Plant response rating, Barnyardgrass: 70
[6]
  Plant response rating, Barnyardgrass: 0
[7]; [21]
  Plant response rating, Foxtail, Giant: 20
[7]; [22]
  Plant response rating, Foxtail, Giant: 60
[8]; 31 g ai/ha
  Plant response rating, Ryegrass, Italian: 0
[9]; [21]
  Plant response rating, Corn: 10
[9]; [22]
  Plant response rating, Corn: 20
[10]; 31 g ai/ha
  Pigweed plant response rating (0 to 100 scale): 90
[10]; 125 g ai/ha
  Plant response rating, Pigweed: 100
[11]; [21]
  Plant response rating, Blackgrass: 20
[11]; [22]
  Plant response rating, Blackgrass: 20
[12]; [21]
  Plant response rating, Kochia: 70
[12]; [22]
  Plant response rating, Kochia: 100
[13]
  Plant response rating, Rice: 0
[14]; 31 g ai/ha
  Plant response rating, Wheat: 20
[15]; 31 g ai/ha
  Plant response rating, Pigweed: 90
[16]; [21]
  Plant response rating, Galium: 40
[16]; [22]
  Plant response rating, Galium: 60
[17]
  Plant response rating, Sedge, Umbrella: 0
[18]; 31 g ai/ha
  Ragweed plant response rating (0 to 100 scale): 0
[18]; 125 g ai/ha
  Plant response rating, Ragweed: 30
[19]; 31 g ai/ha
  Ryegrass, Italian plant response rating (0 to 100 scale): 0
[19]; 125 g ai/ha
  Plant response rating, Ryegrass, Italian: 0
[20]; 31 g ai/ha
  Foxtail, Giant plant response rating (0 to 100 scale): 70
[20]; 125 g ai/ha
  Plant response rating, Foxtail, Giant: 90

## FCCc1cn(-c2c(F)cccc2Oc2ncc(Cl)cn2)nn1 [Compound 108]
[1]
  Plant response rating, Ducksalad: 85
[2]; 31 g ai/ha
  Kochia plant response rating (0 to 100 scale): 40
[2]; 125 g ai/ha
  Plant response rating, Kochia: 70
[3]; 31 g ai/ha
  Plant response rating, Ragweed: 20
[4]; [21]
  Plant response rating, Barnyardgrass: 20
[4]; [22]
  Plant response rating, Barnyardgrass: 60
[5]; 31 g ai/ha
  Barnyardgrass plant response rating (0 to 100 scale): 10
[5]; 125 g ai/ha
  Plant response rating, Barnyardgrass: 70
[6]
  Plant response rating, Barnyardgrass: 0
[7]; [21]
  Plant response rating, Foxtail, Giant: 20
[7]; [22]
  Plant response rating, Foxtail, Giant: 70
[8]; 31 g ai/ha
  Plant response rating, Ryegrass, Italian: 0
[9]; [21]
  Plant response rating, Corn: 20
[9]; [22]
  Plant response rating, Corn: 30
[10]; 31 g ai/ha
  Pigweed plant response rating (0 to 100 scale): 90
[10]; 125 g ai/ha
  Plant response rating, Pigweed: 100
[11]; [21]
  Plant response rating, Blackgrass: 30
[11]; [22]
  Plant response rating, Blackgrass: 80
[12]; [21]
  Plant response rating, Kochia: 70
[12]; [22]
  Plant response rating, Kochia: 90
[13]
  Plant response rating, Rice: 35
[14]; 31 g ai/ha
  Plant response rating, Wheat: 10
[15]; 31 g ai/ha
  Plant response rating, Pigweed: 50
[16]; [21]
  Plant response rating, Galium: 70
[16]; [22]
  Plant response rating, Galium: 90
[17]
  Plant response rating, Sedge, Umbrella: 80
[18]; 31 g ai/ha
  Ragweed plant response rating (0 to 100 scale): 70
[18]; 125 g ai/ha
  Plant response rating, Ragweed: 80
[19]; 31 g ai/ha
  Ryegrass, Italian plant response rating (0 to 100 scale): 0
[19]; 125 g ai/ha
  Plant response rating, Ryegrass, Italian: 30
[20]; 31 g ai/ha
  Foxtail, Giant plant response rating (0 to 100 scale): 20
[20]; 125 g ai/ha
  Plant response rating, Foxtail, Giant: 90

## Cc1cn(-c2c(C#N)cccc2Oc2ncc(Cl)cn2)cn1 [Compound 260]
[1]
  Plant response rating, Ducksalad: 0
[2]; [23]
  Plant response rating, Kochia: 0
[2]; 125 g ai/ha
  Kochia plant response rating (0 to 100 scale): 0
[3]; 31 g ai/ha
  Plant response rating, Ragweed: 30
[3]; 125 g ai/ha
  Plant response rating, Ragweed: 40
[4]; [21]
  Plant response rating, Barnyardgrass: 0
[4]; [24]
  Plant response rating, Barnyardgrass: 0
[5]; [23]
  Plant response rating, Barnyardgrass: 0
[5]; 125 g ai/ha
  Barnyardgrass plant response rating (0 to 100 scale, 0 is no effect, 100 is complete control): 0
[6]
  Plant response rating, Barnyardgrass: 0
[7]; [21]
  Plant response rating, Foxtail, Giant: 0
[7]; [24]
  Plant response rating, Foxtail, Giant: 0
[8]; 31 g ai/ha
  Plant response rating, Ryegrass, Italian: 0
[8]; 125 g ai/ha
  Plant response rating, Ryegrass, Italian: 0
[9]; [21]
  Plant response rating, Corn: 0
[9]; [24]
  Plant response rating, Corn: 10
[10]; [23]
  Plant response rating, Pigweed: 0
[10]; 125 g ai/ha
  Pigweed plant response rating (0 to 100 scale): 30
[11]; [21]
  Plant response rating, Blackgrass: 0
[11]; [24]
  Plant response rating, Blackgrass: 0
[12]; [21]
  Plant response rating, Kochia: 50
[12]; [24]
  Plant response rating, Kochia: 60
[13]
  Plant response rating, Rice: 0
[14]; 31 g ai/ha
  Plant response rating, Wheat: 0
[14]; 125 g ai/ha
  Plant response rating, Wheat: 0
[15]; 31 g ai/ha
  Plant response rating, Pigweed: 50
[15]; 125 g ai/ha
  Plant response rating, Pigweed: 60
[16]; [21]
  Plant response rating, Galium: 50
[16]; [24]
  Plant response rating, Galium: 60
[17]
  Plant response rating, Sedge, Umbrella: 0
[18]; [23]
  Plant response rating, Ragweed: 0
[18]; 125 g ai/ha
  Ragweed plant response rating (0 to 100 scale): 0
[19]; [23]
  Plant response rating, Ryegrass, Italian: 0
[19]; 125 g ai/ha
  Ryegrass, Italian plant response rating (0 to 100 scale): 0
[20]; [23]
  Plant response rating, Foxtail, Giant: 0
[20]; 125 g ai/ha
  Foxtail, Giant plant response rating (0 to 100 scale): 0
